Key:
[1] = DPPH radical scavenging test (antioxidant activity); settings: for IC50: − means no activity
Experimental: The DPPH scavenging was assayed according to the reported method. The DPPH radical scavenging test was performed in 96-well microplates. Samples (compounds 1–12) were added to 180 μL (150 μmol/L) DPPH solution in EtOH at 20 μL solutions of different concentrations between 10 and 500 μM. After 30 min of light avoidance, absorbance at 517 nm using a microplate reader (Tecan Trading AG, Männedorf, Switzerland) was measured and the percentage of activity was calculated. All assays were performed in three replicates, and vitamin C was used as a positive control.

α-glucosidase = α-glucosidase (Saccharomyces cerevisiae, UniProt P53341); assay: α-glucosidase inhibitory assay; assay type: biochemical; settings: − means no activity
Experimental: The α-glucosidase inhibitory effect was assessed as described in our recently published paper.

Chain of α-glucosidase (P53341 whole entry): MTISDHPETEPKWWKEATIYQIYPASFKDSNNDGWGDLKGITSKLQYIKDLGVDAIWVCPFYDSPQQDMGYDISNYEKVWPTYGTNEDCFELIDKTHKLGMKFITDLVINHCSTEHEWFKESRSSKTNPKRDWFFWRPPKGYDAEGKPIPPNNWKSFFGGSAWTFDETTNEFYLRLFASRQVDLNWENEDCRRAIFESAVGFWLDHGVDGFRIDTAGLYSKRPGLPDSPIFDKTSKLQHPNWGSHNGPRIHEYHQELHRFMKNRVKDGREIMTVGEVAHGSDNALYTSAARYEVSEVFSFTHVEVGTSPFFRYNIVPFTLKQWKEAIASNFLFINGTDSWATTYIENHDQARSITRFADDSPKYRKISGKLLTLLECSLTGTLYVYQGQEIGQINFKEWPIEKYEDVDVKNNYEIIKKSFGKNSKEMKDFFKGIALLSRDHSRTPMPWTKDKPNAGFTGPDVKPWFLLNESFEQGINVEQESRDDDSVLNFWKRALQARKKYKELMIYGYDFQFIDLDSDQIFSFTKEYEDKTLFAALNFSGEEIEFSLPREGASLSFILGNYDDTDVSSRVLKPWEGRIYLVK

| Molecule | Antioxidant % Inhibition (500 μM) [1] [%] | IC50 [1] [µM] | IC50 (α-glucosidase) [µM] |
| --- | --- | --- | --- |
| O=C(O)[C@H](Cc1ccc(O)cc1)n1cnc2ccccc2c1=O [Compound 1, Asperflaloid A] | <50 | > 500 | – |
| NC(=O)Cc1ccc(O)cc1 [Compound 10, 4-hydroxybenzeneacetamide] | 64.9 | 339 | – |
| phenylacetic acid [Compound 9] | <50 | > 500 | > 1000 |
| COC(=O)Cc1ccc(O)c(O)c1 [Compound 8, 3,4-dihydroxyphenylacetic acid methyl ester] | 92 | 27.1 | – |
| COC(=O)Cc1ccc(O)cc1 [Compound 11, 4-hydroxy phenylacetic acid methyl ester] | <50 | > 500 | – |
| N#CCc1ccc(O)cc1 [Compound 12, 4-hydroxyphenylacetonitrile] | <50 | > 500 | – |
| O=c1[nH]c(Cc2ccc(O)cc2)nc2ccccc12 [Compound 3, 2-(4-hydroxybenzyl)quinazolin-4(3H)-one] | <50 | > 500 | – |
| O=C(O)Cc1ccc(O)c(O)c1 [Compound 7, 3,4-dihydroxybenzeneacetic acid] | 96.6 | 14.4 | – |
| O=C1O[C@H]([C@@H](O)CO)C(O)=C1O [Vitamin C, vitamin C, reference compound] | 96.4 | 26.7 | – |
| C/C(=C/C(=O)NCCCC(=O)O)CCO [Compound 6, fuscoatramide] | <50 | > 500 | – |
| C=CC(C)(C)[C@]12C=C(OC)C(=O)N3/C(=C/c4c[nH]cn4)C(=O)N[C@@]31N(OC)c1ccccc12 [Compound 5, oxaline] | <50 | > 500 | – |
| O=C(O)c1ccccc1-n1ncnc1Cc1ccc(O)cc1 [Compound 4, penipanoid A] | <50 | > 500 | – |
| CC(=O)Nc1ccccc1C(=O)OC[C@@H](O)CO [Compound 2, Asperflaloid B] | <50 | > 500 | – |
